# According to US20260297083A1, “SUBSTITUTED ACETYLENE COMPOUND DERIVATIVES AND THEIR PHARMACEUTICAL USE” (AVELOS THERAPEUTICS INC., priority 2023, published 2026):
# Target: T1, Polθ polymerase domain (amino acids 1792-2590) (Homo sapiens, UniProt O75417)
# T1 construct: 10×Histidine-SUMO (N, cleaved yes); made in house; host or cells: E. coli
# T1 sequence (O75417 1792-2590): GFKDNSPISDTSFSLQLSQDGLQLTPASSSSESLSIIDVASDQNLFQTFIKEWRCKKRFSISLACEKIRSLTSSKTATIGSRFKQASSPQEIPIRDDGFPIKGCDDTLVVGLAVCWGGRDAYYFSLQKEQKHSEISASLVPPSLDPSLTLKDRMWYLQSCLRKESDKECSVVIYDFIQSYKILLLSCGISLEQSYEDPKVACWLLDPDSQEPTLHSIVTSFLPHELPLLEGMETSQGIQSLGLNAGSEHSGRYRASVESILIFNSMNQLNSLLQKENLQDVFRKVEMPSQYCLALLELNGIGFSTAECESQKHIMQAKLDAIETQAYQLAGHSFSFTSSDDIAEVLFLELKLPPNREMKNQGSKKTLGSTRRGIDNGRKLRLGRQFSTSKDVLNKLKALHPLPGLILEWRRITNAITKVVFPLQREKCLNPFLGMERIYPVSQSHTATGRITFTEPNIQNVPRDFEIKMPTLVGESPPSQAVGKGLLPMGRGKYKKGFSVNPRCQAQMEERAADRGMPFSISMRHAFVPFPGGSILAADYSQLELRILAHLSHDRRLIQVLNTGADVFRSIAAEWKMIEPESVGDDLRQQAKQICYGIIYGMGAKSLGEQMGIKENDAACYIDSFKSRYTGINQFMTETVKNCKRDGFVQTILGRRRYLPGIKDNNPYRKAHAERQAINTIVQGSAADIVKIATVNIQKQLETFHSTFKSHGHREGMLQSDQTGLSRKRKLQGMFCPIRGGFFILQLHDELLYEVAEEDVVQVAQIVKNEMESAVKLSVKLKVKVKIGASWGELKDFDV
# Assay: Picogreen assay of Polθ polymerase activity
# Assay type: biochemical
# Details: 12-point concentration response, 90 minutes incubation at room temperature, 8 nM Polθ in 2×polymerase mixture, read-out: PolQ IC50
# Source text: The DNA sequence of the polQ gene (Genebank ID #NM 199420.4) was chemically synthesized. The DNA sequence encoding the polymerase domain (amino acids 1792-2590) was subcloned into an E. coli expression plasmid, resulting in the fusion of 10×Histidine-SUMO tag at the N terminus of the polymerase domain.
# The protein was expressed in E. coli. and purified using a 2-step IMAC (immobilized metal chelate affinity chromatography) procedure. Briefly stated, the overexpressed E. coli lysate was subjected to Ni-NTA purification, and an N-terminal tag was digested by a SUMO protease. Then, the excised fragment of 10×Histidine-SUMO tag was removed using Ni-NTA beads. The resulting protein was used for the Picogreen assay, as described below.
# The methods of DNA complex preparation were slightly modified from the protocol previously reported (Zatreanu et al., 2021, Nature Communications, 12:3636). Briefly stated, polθ substrate was prepared by mixing Oligo1 (5′-GCG GCT GTC ATA AG-3′) and Oligo2 (5′-GCTACATTGACAATGGCATCAAATCTCAGATTGCGTCTTATGACAGCCGCG-3′) in an annealing buffer (20 mM Tris-Cl, pH 7.5, 50 mM NaCl) to the final concentration of 22 uM and 20 uM, respectively. The Polθ product was prepared by mixing Oligo3 (5′-CGCGGCTGTCATAAGACGCAATCTGAGATTTGATGCCATTGTCAATGTAGC-3′) and Oligo2 (5′-GCTACATTGACAATGGCATCAAATCTCAGATTGCGTCTTATGACAGCCGCG-3′) to the final concentration of 20 uM. The polθ product was used for the top signal control in the Picogreen assay. Both substrate and product were heated to 95° C. […] and cooled slowly to room temperature.
# To evaluate the ability of test compounds to inhibit the activity of polθ in vitro, a Picogreen assay was performed to measure polθ IC50 (nM).
# The reactions were performed at room temperature in an assay buffer (25 mM Tris-HCl, pH 7.5, 12.5 mM NaCl, 0.5 mM MgCl2, 5% (v/v) glycerol, 0.01% (v/v) Triton X-100, 0.01% (w/v) Bovine serum albumin, 1 mM DTT). Thirty microliters of 2×polymerase mixture (8 nM Polθ enzyme in an assay buffer) were distributed to 96 well plates, test compounds were prepared by dilution in 100% DMSO to obtain the correct dose range for a 12-point concentration response and 1 μl was dispensed into each well, and then 30 microliters of 2×substrate mix (100 nM DNA and 40 uM dNTPs in an assay buffer) was added. After 90 minutes of incubation, the reaction was stopped and DNA was stained by adding 40 microliters of Picogreen solution (1:80 dilution of Picogreen, Invitrogen, Cat #P7581, 25 mM Tris-HCl, pH 7.5, 10 mM EDTA, pH 7.5).
# The fluorescence intensity was measured at excitation/emission=485 nm/520 nm using an Ensight plate reader (Perkin Elmer). The data was analyzed by GraphPad Prism software (Version 8.4.3) to calculate IC50.
row,Structure (SMILES),IC50 [µM]
1,CCN1CCN(c2cnc(C#CCN(C(=O)[C@@H]3CCS(=O)(=O)N3c3cc(C(F)(F)F)cc(C)n3)c3cc(C)ccc3F)cn2)CC1 [compound 51],0.001 to 0.05
2,Cc1cc(C(F)(F)F)cc(N2C(=O)CC[C@H]2C(=O)N(CC#CCN2CCOCC2)c2ccc(F)c(C)c2F)n1 [compound 14],0.001 to 0.05
3,Cc1cc(C(F)(F)F)cc(N2[C@H](C(=O)N(CC#Cc3cnc(N)cn3)c3ccc(F)c(C)c3F)CCS2(=O)=O)n1 [compound 17],0.001 to 0.05
4,Cc1cc(C(F)(F)F)cc(N2[C@H](C(=O)N(CC#Cc3ccc(Cc4ccc(C(N)=O)nn4)nc3)c3ccc(F)c(C)c3)CCS2(=O)=O)n1 [compound 131],0.001 to 0.05
5,Cc1cc(C(F)(F)F)cc(N2[C@H](C(=O)N(CC#Cc3cnc4c(c3)CN(C)C4=O)c3ccc(F)c(C)c3)CCS2(=O)=O)n1 [compound 98],0.001 to 0.05
6,Cc1ccc(F)c(N(CC#Cc2cnc(NC(C)C)cn2)C(=O)[C@@H]2CCS(=O)(=O)N2c2cc(C(F)(F)F)cc(C)n2)c1 [compound 37],0.001 to 0.05
7,Cc1cc(N(CC#Cc2ccc(C(N)=O)nc2)C(=O)[C@@H]2CCS(=O)(=O)N2c2cc(C(F)(F)F)cc(C(F)(F)F)n2)ccc1F [compound 126],0.001 to 0.05
8,Cc1cc(C(F)(F)F)cc(N2[C@H](C(=O)N(CC#Cc3ncc(N4CCOCC4)nc3N)c3ccc(F)c(C)c3)CCS2(=O)=O)n1 [compound 43],0.001 to 0.05
9,"C=CC(=O)Nc1ccncc1C#CCN(C(=O)[C@@H]1CCS(=O)(=O)N1c1cc(C(F)(F)F)cc(C)n1)c1ccc(F)c(C)c1 [compound 143, (S)-N-(3-(4-acrylamidopyridin-3-yl)prop-2-yn-1-yl)-N-(4-fluoro-3-methylphenyl)-2-(6-methyl-4-(trifluoromethyl)pyridin-2-yl)isothiazolidine-3-carboxamide 1,1-dioxide]",0.051 to 0.1
10,Cc1cc(C(F)(F)F)cc(N2[C@H](C(=O)N(CC#Cc3ccc(NC(C)C)nn3)c3ccc(F)c(C)c3F)CCS2(=O)=O)n1 [compound 21],0.001 to 0.05
11,Cc1cc(C(F)(F)F)cc(N2C(=O)CC[C@H]2C(=O)N(CC#Cc2ccc(N)nn2)c2ccc(F)c(C)c2F)n1 [compound 2],0.001 to 0.05
12,Cc1cc(C(F)(F)F)cc(N2C(=O)CC[C@H]2C(=O)N(CC#Cc2cnc(N3CCOCC3)cn2)c2ccc(F)c(C)c2)n1 [compound 10],0.001 to 0.05
13,Cc1cc(C(F)(F)F)cc(N2[C@H](C(=O)N(CC#Cc3cccc(C(N)=O)c3)c3ccc(F)c(C)c3)CCS2(=O)=O)n1 [compound 106],0.001 to 0.05
14,Cc1cc(C(F)(F)F)cc(N2[C@H](C(=O)N(CC#Cc3ccc(C(N)=O)nc3)Cc3ccc(F)c(C)c3)CCS2(=O)=O)n1 [compound 113],> 0.101
15,Cc1cc(C(F)(F)F)cc(N2[C@H](C(=O)N(CC#Cc3ccc(N)nn3)c3ccc(F)c(C)c3)CN(C)S2(=O)=O)n1 [compound 109],0.001 to 0.05
16,Cc1cc(C(F)(F)F)cc(N2[C@H](C(=O)N(CC#Cc3ccc(Cc4ncc(C(N)=O)cn4)nc3)c3ccc(F)c(C)c3)CCS2(=O)=O)n1 [compound 132],0.001 to 0.05
17,Cc1cc(C(F)(F)F)cc(N2[C@H](C(=O)N(CC#Cc3ccc(Cn4cc5cccc(C(N)=O)c5n4)nc3)c3ccc(F)c(C)c3)CCS2(=O)=O)n1 [compound 136],0.001 to 0.05
18,Cc1cc(C(F)(F)F)cc(N2[C@H](C(=O)N(CC#Cc3cc(C)c(F)c(C)n3)c3ccc(F)c(C)c3)CCS2(=O)=O)n1 [compound 90],0.051 to 0.1
19,Cc1cc(C(F)(F)F)cc(N2[C@H](C(=O)N(CC#Cc3cc(N4CCOCC4)nc(C(F)(F)F)n3)c3ccc(F)c(C)c3)CCS2(=O)=O)n1 [compound 76],0.051 to 0.1
20,"C=CC(=O)Nc1cccnc1C#CCN(C(=O)[C@@H]1CCS(=O)(=O)N1c1cc(C(F)(F)F)cc(C)n1)c1ccc(F)c(C)c1 [compound 142, (S)-N-(3-(3-acrylamidopyridin-2-yl)prop-2-yn-1-yl)-N-(4-fluoro-3-methylphenyl)-2-(6-methyl-4-(trifluoromethyl)pyridin-2-yl)isothiazolidine-3-carboxamide 1,1-dioxide]",0.001 to 0.05
21,Cc1cc(C(F)(F)F)cc(N2[C@H](C(=O)N(CC#Cc3cnc(N4CCOCC4)c(C(F)(F)F)n3)c3ccc(F)c(C)c3)CCS2(=O)=O)n1 [compound 46],0.001 to 0.05

# Results, then the molecule that gave them:
row,IC50 [µM],Structure (SMILES)
1,0.001 to 0.05,Cc1cc(C(F)(F)F)cc(N2[C@H](C(=O)N(CC#Cc3ccc(C#N)nc3)c3ccc(F)c(C)c3)CCS2(=O)=O)n1 [compound 115]
2,0.001 to 0.05,Cc1cc(C(F)(F)F)cc(N2[C@H](C(=O)N(CC#Cc3cnc(N4CCOCC4)cn3)c3ccc(F)c(C)c3)CCS2(=O)=O)n1 [compound 39]
3,0.001 to 0.05,Cc1cc(C(F)(F)F)cc(N2[C@H](C(=O)N(CC#Cc3cnc(N4CCOCC4)c(C)n3)c3ccc(F)c(C)c3)CCS2(=O)=O)n1 [compound 45]
4,0.001 to 0.05,Cc1cc(C(F)(F)F)cc(N2[C@H](C(=O)N(CC#Cc3cnc(C(N)=O)nc3)c3ccc(F)c(C)c3)CCS2(=O)=O)n1 [compound 78]
5,0.001 to 0.05,Cc1cc(C(F)(F)F)cc(N2[C@H](C(=O)N(CC#Cc3ncc(N4CCOCC4)cn3)c3ccc(F)c(C)c3)CCS2(=O)=O)n1 [compound 79]
6,0.001 to 0.05,C=CC(=O)Nc1ccc(C#CCN(C(=O)[C@@H]2CCS(=O)(=O)N2c2cc(C(F)(F)F)cc(C)n2)c2ccc(F)c(C)c2)nn1 [compound 129]
7,0.001 to 0.05,Cc1cc(C(F)(F)F)cc(N2[C@H](C(=O)N(CC#Cc3cnc(C(=O)N4CCOCC4)cn3)c3ccc(F)c(C)c3)CCS2(=O)=O)n1 [compound 69]
8,0.001 to 0.05,Cc1cc(C(F)(F)F)cc(N2[C@H](C(=O)N(CC#Cc3cncc(C(=O)N4CC5CCC(C4)O5)n3)c3ccc(F)c(C)c3)CCS2(=O)=O)n1 [compound 71]
9,0.001 to 0.05,Cc1cc(C(F)(F)F)cc(N2[C@H](C(=O)N(CC#Cc3ncc(C(=O)N4C5CCC4COC5)cn3)c3ccc(F)c(C)c3)CCS2(=O)=O)n1 [compound 83]
10,0.001 to 0.05,Cc1cc(C(F)(F)F)cc(N2[C@H](C(=O)N(CC#Cc3cnc(NC(N)=O)cn3)c3ccc(F)c(C)c3)CCS2(=O)=O)n1 [compound 35]
11,0.001 to 0.05,Cc1cc(C(F)(F)F)cc(N2[C@H](C(=O)N(CC#Cc3ccc(C(N)=O)nc3)c3ccc(F)c(C)c3)CCS2(=O)=O)n1 [compound 95]
12,0.001 to 0.05,Cc1cc(C(F)(F)F)cc(N2[C@H](C(=O)N(CC#Cc3ccc(C(N)=O)nn3)c3ccc(F)c(C)c3)CCS2(=O)=O)n1 [compound 29]
13,0.001 to 0.05,Cc1cc(C(F)(F)F)cc(N2[C@H](C(=O)N(CC#Cc3cnc(N4C[C@@H](C)O[C@@H](C)C4)cn3)c3ccc(F)c(C)c3)CCS2(=O)=O)n1 [compound 47]
14,0.001 to 0.05,Cc1cc(C(F)(F)F)cc(N2[C@H](C(=O)N(CC#Cc3cnc(N4CCOCC4)c(N)n3)c3ccc(F)c(C)c3)CCS2(=O)=O)n1 [compound 44]
